Data reported in article PMC9528225 (Molecular Immunology, 2012).

Molecular target: HLA-DR15 (DRB1*1501) (Homo sapiens, UniProt P01903+P01911)
Test: biochemical
Format: binding

Question: How did the IC50 turn out when `CC(C)C[C@H](NC(=O)[C@H](Cc1ccc(O)cc1)NC(=O)[C@H](C)NC(=O)[C@H](CCCNC(=N)N)NC(=O)[C@H](CC(C)C)NC(=O)[C@H](CCC(N)=O)NC(=O)[C@H](CCC(=O)O)NC(=O)[C@H](C)NC(=O)[C@@H](N)CCC(=O)O)C(=O)N[C@@H](CC(=O)O)C(=O)NCC(=O)N[C@H](C(=O)NCC(=O)N[C@H](C(=O)N[C@@H](CCC(=O)O)C(=O)O)C(C)C)[C@@H](C)O` [A3 152–166] was run?
Answer: 18 nM
